Read-outs that look alike come from different tables or passages of the source.
How the values were obtained:
[1] = test system: lung cancer (4 cell lines); test: CellTiter-Glo Viability Assay, lung cancer; type: cell-based; conditions: Homo sapiens, inhibition of cancer cell proliferation
[2] = test system: ovarian cancer (4 cell lines); test: CellTiter-Glo Viability Assay, ovarian cancer; type: cell-based; conditions: Homo sapiens, inhibition of cancer cell proliferation
CLK2 = molecular target: T1, CLK2 (Homo sapiens, UniProt P49760); test: CLK2 kinase activity assay (Z-lyte, Ser/Thr 6 peptide); type: biochemical; conditions: recombinant CLK2 kinase, ATP 60 μM; read-out: EC50
T1 construct: purchased Thermo Fisher (Life Technologies), Z'-LYTE Kinase Assay Kits
Experimental: All reactions were performed in duplicate.

[3] = test system: liver cancer (3 cell lines); test: CellTiter-Glo Viability Assay, liver cancer; type: cell-based; conditions: Homo sapiens, inhibition of cancer cell proliferation
[4] = test system: prostate cancer (5 cell lines); test: CellTiter-Glo Viability Assay, prostate cancer; type: cell-based; conditions: Homo sapiens
[5] = test system: haematopoietic & lymphoid tumors (13 cell lines); test: CellTiter-Glo Viability Assay, haematopoietic & lymphoid tumors; type: cell-based; conditions: Homo sapiens, inhibition of cancer cell proliferation
[6] = test system: colorectal cancer (6 cell lines); test: CellTiter-Glo Viability Assay, colorectal cancer; type: cell-based; conditions: Homo sapiens, inhibition of cancer cell proliferation
[7] = test system: pancreatic cancer (8 cell lines); test: CellTiter-Glo Viability Assay, pancreatic cancer; type: cell-based; conditions: Homo sapiens, inhibition of cancer cell proliferation
all 50 cell lines = test: CellTiter-Glo Viability Assay, average across all cell lines; type: cell-based; conditions: Homo sapiens; across all 50 cell lines; read-out: average EC50 for inhibition of cancer cell proliferation
Summary of the method: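 Luminescent ATP read-out (CellTiter-Glo) after a 4-day compound exposure at 37° C served as the viability measure. Cells were seeded at 300-3,000/well, compound wells run in duplicate against DMSO controls, and EC50 values came from fitted dose-response curves.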

MDA-MB-231-Luc = test: CellTiter-Glo Viability Assay, breast cancer; type: cell-based; conditions: Homo sapiens, 96 h; MDA-MB-231-Luc, breast cancer, four days; read-out: EC50
ZR-75-1 = test: CellTiter-Glo Viability Assay, breast cancer; type: cell-based; conditions: Homo sapiens, 96 h; ZR-75-1, breast cancer, four days; read-out: EC50
CAMA1 = test: CellTiter-Glo Viability Assay, breast cancer; type: cell-based; conditions: Homo sapiens, CAMA-1, 96 h; CAMA1, breast cancer, four days; read-out: EC50
T47D = test: CellTiter-Glo Viability Assay, breast cancer; type: cell-based; conditions: Homo sapiens, 96 h, breast cancer, four days, read-out: EC50
MCF7 = test: CellTiter-Glo Viability Assay, breast cancer; type: cell-based; conditions: Homo sapiens, 96 h; MCF7, breast cancer, four days; read-out: EC50
DU4475 = test: CellTiter-Glo Viability Assay, breast cancer; type: cell-based; conditions: Homo sapiens, DU-4475, 96 h; DU4475, breast cancer, four days; read-out: EC50
BT-549 = test: CellTiter-Glo Viability Assay, breast cancer; type: cell-based; conditions: Homo sapiens, 96 h; BT-549, breast cancer, four days; read-out: EC50
HCC1599 = test: CellTiter-Glo Viability Assay, breast cancer; type: cell-based; conditions: Homo sapiens, 96 h; HCC1599, breast cancer, four days; read-out: EC50
CLK3 = CLK3 (Homo sapiens, UniProt P49761); test: CLK3 kinase activity assay (Z-lyte, Ser/Thr 18 peptide)
Sequence of CLK3 (P49761 whole entry): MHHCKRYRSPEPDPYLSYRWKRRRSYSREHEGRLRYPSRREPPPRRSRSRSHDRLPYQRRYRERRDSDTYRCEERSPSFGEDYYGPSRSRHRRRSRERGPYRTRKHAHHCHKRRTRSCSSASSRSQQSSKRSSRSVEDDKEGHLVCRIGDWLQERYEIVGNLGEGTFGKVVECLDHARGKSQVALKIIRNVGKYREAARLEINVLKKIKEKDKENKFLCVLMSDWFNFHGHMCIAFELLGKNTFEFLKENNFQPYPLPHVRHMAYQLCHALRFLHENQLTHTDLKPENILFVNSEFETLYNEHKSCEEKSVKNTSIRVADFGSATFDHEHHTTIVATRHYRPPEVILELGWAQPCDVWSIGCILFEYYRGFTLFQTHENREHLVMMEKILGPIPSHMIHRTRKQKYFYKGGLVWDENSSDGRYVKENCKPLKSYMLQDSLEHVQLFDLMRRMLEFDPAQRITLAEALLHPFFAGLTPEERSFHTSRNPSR

T1 sequence (P49760 whole entry): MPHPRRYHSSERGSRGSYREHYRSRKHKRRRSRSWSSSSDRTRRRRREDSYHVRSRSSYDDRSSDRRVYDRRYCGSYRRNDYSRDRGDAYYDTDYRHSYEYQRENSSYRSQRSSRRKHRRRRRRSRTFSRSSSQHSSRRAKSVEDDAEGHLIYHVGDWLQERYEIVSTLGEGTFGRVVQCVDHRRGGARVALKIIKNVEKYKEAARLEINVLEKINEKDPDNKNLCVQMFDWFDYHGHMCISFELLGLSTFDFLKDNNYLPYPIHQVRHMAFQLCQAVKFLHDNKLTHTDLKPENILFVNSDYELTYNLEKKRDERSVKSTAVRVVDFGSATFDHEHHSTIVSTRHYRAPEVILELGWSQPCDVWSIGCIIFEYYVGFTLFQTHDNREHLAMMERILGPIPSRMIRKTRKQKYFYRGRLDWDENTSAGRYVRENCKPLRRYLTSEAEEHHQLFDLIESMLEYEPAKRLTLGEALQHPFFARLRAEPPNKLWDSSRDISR

EC50 ([1]; A-427, A427 cell line, read-out: Lung cancer, EC50 (μM) A427): 0.605 µM | EC50 ([1]; HCC78, HCC-78 cell line, read-out: Lung cancer, EC50 (μM) HCC-78): 1.12 µM | EC50 ([1]; NCI-H460 cell line, read-out: Lung cancer, EC50 (μM) NCI-H460): 1.13 µM | EC50 ([1]; NCI-H522 cell line, read-out: Lung cancer, EC50 (μM) NCI-H522): 0.389 µM | EC50 ([2]; PA-1, PA1 cell line, read-out: Ovarian cancer, EC50 (μM) PA1): 0.585 µM | EC50 ([2]; TOV112D, TOV-112D cell line, read-out: Ovarian cancer, EC50 (μM) TOV-112D): 0.593 µM | EC50 ([2]; OV-90 cell line, read-out: Ovarian cancer, EC50 (μM) OV-90): 1.45 µM | EC50 ([2]; OVCAR-3 cell line, read-out: Ovarian cancer, EC50 (μM) OVCAR-3): 0.37 µM | EC50 (CLK2): 1.6 nM | EC50 ([3]; SNU-398, SNU398 cell line, read-out: Liver cancer, EC50 SNU398): 205 nM | EC50 ([3]; HEPG2 cell line, read-out: Liver cancer, EC50 HEPG2): 750 nM | EC50 ([3]; PLC/PRF/5 cell line, read-out: Liver cancer, EC50 PLC/PRF/5): 1470 nM | EC50 ([4]; DU-145, read-out: Prostate cancer EC50 Du-145): 806 nM | EC50 ([4]; PC-3, PC3 cell line, inhibition of cancer cell proliferation, read-out: Prostate cancer EC50 PC3): 701 nM | EC50 ([4]; 22Rv1 cell line, inhibition of cancer cell proliferation, read-out: Prostate cancer EC50 22Rv1): 612 nM | EC50 ([4]; LNCap clone FGC cell line, inhibition of cancer cell proliferation, read-out: Prostate cancer EC50 LNCap clone FGC): 1080 nM | EC50 ([4]; VCaP (Sigma) cell line, inhibition of cancer cell proliferation, read-out: Prostate cancer EC50 VCaP (Sigma)): 1060 nM | EC50 ([5]; DND41, DND-41 cell line, read-out: Haematopoietic & Lymphoid tumors, EC50 (μM) DND-41): 0.774 µM | EC50 ([5]; MV4-11, MV-4-11 cell line, read-out: Haematopoietic & Lymphoid tumors, EC50 (μM) MV-4-11): 0.193 µM | EC50 ([5]; Rec1, REC-1 cell line, read-out: Haematopoietic & Lymphoid tumors, EC50 (μM) REC-1): 0.189 µM | EC50 ([5]; SU-DHL-4, SUDHL4 cell line, read-out: Haematopoietic & Lymphoid tumors, EC50 (μM) SUDHL4): 0.899 µM | EC50 ([5]; HL-60 cell line, read-out: Haematopoietic & Lymphoid tumors, EC50 (μM) HL-60): 1.24 µM | EC50 ([5]; JM1 cell line, read-out: Haematopoietic & Lymphoid tumors, EC50 (μM) JM1): 0.273 µM | EC50 ([5]; JURKAT, Clone E6-1 cell line, read-out: Haematopoietic & Lymphoid tumors, EC50 (μM) JURKAT, Clone E6-1): 0.863 µM | EC50 ([5]; JeKo-1 cell line, read-out: Haematopoietic & Lymphoid tumors, EC50 (μM) JeKo-1): 0.347 µM | EC50 ([5]; KASUMI-1 cell line, read-out: Haematopoietic & Lymphoid tumors, EC50 (μM) KASUMI-1): 0.555 µM | EC50 ([5]; Loucy cell line, read-out: Haematopoietic & Lymphoid tumors, EC50 (μM) Loucy): 0.617 µM | EC50 ([5]; MOLT-4 cell line, read-out: Haematopoietic & Lymphoid tumors, EC50 (μM) MOLT-4): 0.643 µM | EC50 ([5]; TF-1 cell line, read-out: Haematopoietic & Lymphoid tumors, EC50 (μM) TF-1): 0.785 µM | EC50 ([5]; TOLEDO cell line, read-out: Haematopoietic & Lymphoid tumors, EC50 (μM) TOLEDO): 0.25 µM | EC50 ([6]; HCT-116, HCT116 cell line, read-out: Colorectal cancer, EC50 (μM) HCT116): 0.465 µM | EC50 ([6]; HT-29, HT29 cell line, read-out: Colorectal cancer, EC50 (μM) HT29): 1.09 µM | EC50 ([6]; SW-620, SW620 cell line, read-out: Colorectal cancer, EC50 (μM) SW620): 0.352 µM | EC50 ([6]; DLD-1 cell line, read-out: Colorectal cancer, EC50 (μM) DLD-1): 0.481 µM | EC50 ([6]; SW48 cell line, read-out: Colorectal cancer, EC50 (μM) SW48): 0.285 µM | EC50 ([6]; SW480 cell line, read-out: Colorectal cancer, EC50 (μM) SW480): 0.739 µM | EC50 ([7]; BXPC-3, BxPC3 cell line, read-out: Pancreatic cancer, EC50 BxPC3): 940 nM | EC50 ([7]; CAPAN-1, Capan1 cell line, read-out: Pancreatic cancer, EC50 Capan1): 702 nM | EC50 ([7]; Capan-2, Capan2 cell line, read-out: Pancreatic cancer, EC50 Capan2): 1140 nM | EC50 ([7]; MIA PaCa-2 cell line, read-out: Pancreatic cancer, EC50 MIA PaCa-2): 461 nM | EC50 ([7]; PANC 05.04 cell line, read-out: Pancreatic cancer, EC50 PANC 05.04): 713 nM | EC50 ([7]; PANC-1 cell line, read-out: Pancreatic cancer, EC50 PANC-1): 1220 nM | EC50 ([7]; UPAFII cell line, read-out: Pancreatic cancer, EC50 UPAFII): 385 nM | EC50 (MDA-MB-231-Luc): 891 nM | EC50 (ZR-75-1): 1120 nM | EC50 (CAMA1): 788 nM | EC50 (T47D): 1350 nM | EC50 (MCF7): 2150 nM | EC50 (DU4475): 624 nM | EC50 (BT-549): 496 nM | EC50 (HCC1599): 510 nM | EC50 (CLK3): 24.5 nM
SMILES: CN(C)C1CN(c2cc(C(=O)Nc3cc4cc(-c5cnn(C)c5)ccc4cn3)ccn2)C1 [Compound 70]
EC50 (all 50 cell lines): 750 nM
